Measurements: US8431593B2, “Heteroaryl amide derivatives” (H. Lundbeck A/S, priority 2006, dated 2013)

Each molecule was assayed against T1, P2X7 receptor (Homo sapiens, UniProt Q99572) (assay: P2X7 calcium mobilization assay, high throughput, antagonist activity (Example 4A)). Settings: 50% decrease in the fluorescence response of cells exposed to 80 μM of 2′(3′)-O-(4-benzoyl-benzoyl)adenosine 5′-triphosphate; determined as in Example 4A; read-out: IC50.
T1 construct: host or cells: SH-SY5Y
T1 sequence (Q99572 1-595): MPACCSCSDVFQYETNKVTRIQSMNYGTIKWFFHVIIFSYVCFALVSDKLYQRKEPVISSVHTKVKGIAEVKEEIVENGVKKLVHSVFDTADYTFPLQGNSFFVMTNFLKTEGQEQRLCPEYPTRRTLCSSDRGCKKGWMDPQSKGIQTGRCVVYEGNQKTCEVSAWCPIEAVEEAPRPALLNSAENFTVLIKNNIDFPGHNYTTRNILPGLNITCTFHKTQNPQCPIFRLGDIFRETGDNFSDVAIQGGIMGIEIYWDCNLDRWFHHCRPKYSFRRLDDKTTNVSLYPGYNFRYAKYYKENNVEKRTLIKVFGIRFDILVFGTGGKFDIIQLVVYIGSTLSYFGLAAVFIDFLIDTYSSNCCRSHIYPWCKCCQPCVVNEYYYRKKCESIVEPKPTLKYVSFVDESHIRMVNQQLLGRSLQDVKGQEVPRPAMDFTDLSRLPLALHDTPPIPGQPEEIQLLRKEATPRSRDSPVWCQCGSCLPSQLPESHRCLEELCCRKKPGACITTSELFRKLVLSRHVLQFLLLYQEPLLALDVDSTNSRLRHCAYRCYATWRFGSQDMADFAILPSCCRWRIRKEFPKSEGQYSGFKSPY
Format: cell-based
Summary of the method: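 Cells plated at 100,000/well the day before were dye-loaded for 1 h, then incubated 1 h at room temperature with test compound before agonist-triggered calcium mobilization was read on FLIPR Tetra. Maximum RFU was corrected by subtracting the no-agonist control and related to the agonist-control response.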

IC50, < 2000 nM:
CCOC(=O)C(Cc1cccc(Cl)c1)c1cn2c(C(=O)NCC34CC5CC(CC(C5)C3)C4)cccc2n1 (stereo not shown) [Compound 841, ethyl 2-{5-[(adamantan-1-ylmethyl)carbamoyl]imidazo[1,2-a]pyridin-2-yl}-3-(3-chlorophenyl) propanoate]
CCOC(=O)C(Cc1cccc(OC)c1)c1cn2c(C(=O)NCC34CC5CC(CC(C5)C3)C4)cccc2n1 (stereo not shown) [Compound 842, ethyl 2-{5-[(adamantan-1-ylmethyl)carbamoyl]imidazo[1,2-a]pyridin-2-yl}-3-(3-methoxyphenyl) propanoate]
COc1cccc(CC(C(=O)O)c2cn3c(C(=O)NCC45CC6CC(CC(C6)C4)C5)cccc3n2)c1 (stereo not shown) [Compound 843, 2-{5-[(adamantan-1-ylmethyl)carbamoyl]imidazo[1,2-a]pyridin-2-yl}-3-(3-methoxyphenyl) propanoic acid]
O=C(NCC12CC3CC(CC(C3)C1)C2)c1cccc2nc(C(Cc3ccccc3Cl)C(=O)O)cn12 (stereo not shown) [Compound 844, 2-{5-[(adamantan-1-ylmethyl)carbamoyl]imidazo[1,2-a]pyridin-2-yl}-3-(2-chlorophenyl) propanoic acid]
O=C(NCC12CC3CC(CC(C3)C1)C2)c1cccc2nc(CC3(C(=O)O)CCOCC3)cn12 [Compound 847, 4-({5-[(adamantan-1-ylmethyl)carbamoyl]imidazo [1,2-a]pyridin-2-yl}methyl) tetrahydro-2H-pyran-4-carboxylic acid]
O=C(NCC12CC3CC(CC(C3)C1)C2)c1cccc2nc(C(Cc3cccc(Cl)c3)C(=O)O)cn12 (stereo not shown) [Compound 848, 2-{5-[(adamantan-1-ylmethyl)carbamoyl]imidazo[1,2-a]pyridin-2-yl}-3-(3-chlorophenyl) propanoic acid]
CCOC(=O)C1(c2cn3c(C(=O)NCC45CC6CC(CC(C6)C4)C5)cccc3n2)CCCCC1 [Compound 849, ethyl 1-{5-[(adamantan-1-ylmethyl)carbamoyl]imidazo[1,2-a]pyridin-2-yl} cyclohexane-carboxylate]
O=C(NCC12CC3CC(CC(C3)C1)C2)c1cccc2nc(C3(C(=O)O)CCCC3)cn12 [Compound 850, 1-{5-[(adamantan-1-ylmethyl)carbamoyl]imidazo [1,2-a]pyridin-2-yl} cyclopentane-carboxylic acid]
O=C(NCC12CC3CC(CC(C3)C1)C2)c1cccc2nc(C3(C(=O)O)CCCCC3)cn12 [Compound 851, 1-{5-[(adamantan-1-ylmethyl)carbamoyl]imidazo [1,2-a]pyridin-2-yl} cyclohexane-carboxylic acid]
O=C(Cc1cn2c(C(=O)NCC34CC5CC(CC(C5)C3)C4)cccc2n1)N[C@H]1CCCNC1 [Compound 852, N-(adamantan-1-ylmethyl)-2-{2-oxo-2-[(3S)-piperidin-3-ylamino]ethyl} imidazo [1,2-a]pyridine-5-carboxamide]
O=C(NCC12CC3CC(CC(C3)C1)C2)c1cccc2nc(CSc3nnn[nH]3)cn12 [Compound 853, N-(adamantan-1-ylmethyl)-2-[(1H-tetrazol-5-ylthio)methyl] imidazo [1,2-a]pyridine-5-carboxamide]
CC(C)CC(CNC(=O)c1cccc2nc(C(=O)n3ccc(N)n3)cn12)c1ccc(Cl)cc1 (stereo not shown) [Compound 854, 2-[(3-amino-1H-pyrazol-1-yl)carbonyl]-N-[2-(4-chlorophenyl)-4-methylpentyl] imidazo [1,2-a]pyridine-5-carboxamide]
O=C(NCC12CC3CC(CC(C3)C1)C2)c1cccc2nc(Cn3nnnc3CCO)cn12 [Compound 855, N-(adamantan-1-ylmethyl)-2-{[5-(2-hydroxyethyl)-1H-tetrazol-1-yl]methyl}imidazo [1,2-a]pyridine-5-carboxamide]
CC(O)CNC(=O)Cc1cn2c(C(=O)NCC3(c4cccnc4)CCCCC3)cccc2n1 (stereo not shown) [Compound 857, 2-{2-[(2-hydroxypropyl)amino]-2-oxoethyl}-N-[(1-pyridin-3-ylcyclohexyl)methyl] imidazo[1,2-a] pyridine-5-carboxamide]
CC(O)CNC(=O)Cc1cn2c(C(=O)NCC3(c4ccc(Cl)cc4)CCCCC3)cccc2n1 (stereo not shown) [Compound 858, N-{[1-(4-chlorophenyl)cyclohexyl]methyl}-2-{2-[(2-hydroxypropyl)amino]-2-oxoethyl} imidazo[1,2-a]pyridine-5-carboxamide]
O=C(Cc1cn2c(C(=O)NCC3(c4ccc(C(F)(F)F)cc4)CCCCC3)cccc2n1)NCC1CC1 [Compound 860, 2-{2-[(cyclopropylmethyl)amino]-2-oxoethyl}-N-({1-[4-(trifluoromethyl)phenyl]cyclohexyl}methyl) imidazo[1,2-a] pyridine-5-carboxamide]
O=C(Cc1cn2c(C(=O)NCC3(c4ccc(Cl)cc4)CCCCC3)cccc2n1)NCC1CC1 [Compound 862, N-{[1-(4-chlorophenyl)cyclohexyl]methyl}-2-{2-[(cyclopropylmethyl)amino]-2-oxoethyl} imidazo[1,2-a] pyridine-5-carboxamide]
CC(O)CNC(=O)Cc1cn2c(C(=O)NCC3(c4ccc(C(F)(F)F)cc4)CCCCC3)cccc2n1 (stereo not shown) [Compound 864, 2-{2-[(2-hydroxypropyl)amino]-2-oxoethyl}-N-({1-[4-(trifluoromethyl)phenyl]cyclohexyl}methyl) imidazo[1,2-a] pyridine-5-carboxamide]
O=C(Cc1cn2c(C(=O)NCC3(c4cccnc4)CCCCC3)cccc2n1)NC1CCCC1 [Compound 865, 2-[2-(cyclopentylamino)-2-oxoethyl]-N-[(1-pyridin-3-ylcyclohexyl)methyl] imidazo[1,2-a] pyridine-5-carboxamide]
O=C(Cc1cn2c(C(=O)NCC3(c4ccc(Cl)cc4)CCCCC3)cccc2n1)NC1CCCC1 [Compound 866, N-{[1-(4-chlorophenyl)cyclohexyl]methyl}-2-[2-(cyclopentylamino)-2-oxoethyl]imidazo [1,2-a]pyridine-5-carboxamide]
CCC(C)NC(=O)Cc1cn2c(C(=O)NCC3(c4ccc(C(F)(F)F)cc4)CCCCC3)cccc2n1 (stereo not shown) [Compound 868, 2-[2-(sec-butylamino)-2-oxoethyl]-N-({1-[4-(trifluoromethyl)phenyl]cyclohexyl}methyl) imidazo[1,2-a] pyridine-5-carboxamide]
CCC(C)NC(=O)Cc1cn2c(C(=O)NCC3(c4cccnc4)CCCCC3)cccc2n1 (stereo not shown) [Compound 869, 2-[2-(sec-butylamino)-2-oxoethyl]-N-[(1-pyridin-3-ylcyclohexyl)methyl] imidazo[1,2-a] pyridine-5-carboxamide]
CCC(C)NC(=O)Cc1cn2c(C(=O)NCC3(c4ccc(Cl)cc4)CCCCC3)cccc2n1 (stereo not shown) [Compound 870, 2-[2-(sec-butylamino)-2-oxoethyl]-N-{[1-(4-chlorophenyl)cyclohexyl]methyl}imidazo [1,2-a]pyridine-5-carboxamide]
CC(C)(C)CCNC(=O)Cc1cn2c(C(=O)NCC3(c4ccc(Cl)cc4)CCCCC3)cccc2n1 [Compound 871, N-{[1-(4-chlorophenyl)cyclohexyl]methyl}-2-{2-[(3,3-dimethylbutyl)amino]-2-oxoethyl} imidazo[1,2-a] pyridine-5-carboxamide]
O=C(Cc1cn2c(C(=O)NCC3(c4ccc(Cl)cc4)CCOCC3)cccc2n1)NCC(F)(F)F [Compound 872, N-{[4-(4-chlorophenyl)tetrahydro-2H-pyran-4-yl]methyl}-2-{2-oxo-2-[(2,2,2-trifluoroethyl)amino]ethyl}imidazo [1,2-a]pyridine-5-carboxamide]
O=C(Cc1cn2c(C(=O)NCC3(c4ccc(C(F)(F)F)cc4)CCCCC3)cccc2n1)NCC(F)(F)F [Compound 873, 2-{2-oxo-2-[(2,2,2-trifluoroethyl)amino]ethyl}-N-({1-[4-(trifluoromethyl)phenyl]cyclohexyl}methyl) imidazo[1,2-a] pyridine-5-carboxamide]
O=C(Cc1cn2c(C(=O)NCC3(c4cccnc4)CCCCC3)cccc2n1)NCC(F)(F)F [Compound 874, 2-{2-oxo-2-[(2,2,2-trifluoroethyl)amino]ethyl}-N-[(1-pyridin-3-ylcyclohexyl)methyl] imidazo[1,2-a] pyridine-5-carboxamide]
O=C(Cc1cn2c(C(=O)NCC3(c4ccc(Cl)cc4)CCCCC3)cccc2n1)NCC(F)(F)F [Compound 875, N-{[1-(4-chlorophenyl)cyclohexyl]methyl}-2-{2-oxo-2-[(2,2,2-trifluoroethyl)amino]ethyl} imidazo[1,2-a] pyridine-5-carboxamide]
